Laboratory results taken from PMC7324608 (Scientific Reports, 2020).
Changes are numbered by the printed parent chain.

Key:
BbHtrA = test system: BbHtrA; design: method as in PMID 26480895; conditions: cited from earlier work
HpHtrA D165A = target: T1, HpHtrA D165A (Helicobacter pylori, UniProt G2J5T2, D165A); test: thermal shift assay; assay type: binding; design: (HpHtrA, G18-K475, UniProt G2J5T2); GST (N, cleaved yes); made in house; host or cells: E. coli BL21
T1 sequence (G2J5T2 18-475 D165A): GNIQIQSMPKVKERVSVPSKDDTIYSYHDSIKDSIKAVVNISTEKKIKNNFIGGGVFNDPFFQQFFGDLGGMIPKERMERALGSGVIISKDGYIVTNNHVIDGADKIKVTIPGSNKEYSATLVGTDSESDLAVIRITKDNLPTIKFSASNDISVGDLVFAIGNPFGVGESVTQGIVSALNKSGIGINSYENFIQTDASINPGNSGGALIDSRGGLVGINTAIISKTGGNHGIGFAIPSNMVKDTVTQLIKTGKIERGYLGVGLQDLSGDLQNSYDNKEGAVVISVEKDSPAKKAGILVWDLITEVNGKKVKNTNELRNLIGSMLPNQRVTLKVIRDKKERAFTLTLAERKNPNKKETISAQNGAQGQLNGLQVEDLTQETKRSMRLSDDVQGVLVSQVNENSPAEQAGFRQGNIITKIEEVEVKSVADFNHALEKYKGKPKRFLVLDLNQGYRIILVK
Description: (§1) Recombinant HpHtrA proteins (wt, S164A, D165A, S166A, D168A) in 50 mM HEPES buffer (pH 7.4) were mixed with SYPRO Orange (Sigma-Aldrich, Vienna, Austria) to final concentrations of 4 µM HpHtrA and 7 × SYPRO Orange in a 96-well PCR plate. […] Fluorescence data was collected using an Applied Bioscience StepOne Plus PCR cycler (Thermo Fisher Scientific, Schwerte, Germany) during a temperature ramp from 25–95 °C (0.5 °C per min) with a 4 min hold at 25 °C and 95 °C. SYPRO Orange binds to exposed hydrophobic regions within the denatured HpHtrA proteins, which increases the fluorescence of the dye[57],[58]. The fluorescence emission signal can then be used to determine the melting temperature of the protein, which is located at the infliction point of the fluorescence signal curve. The experiment was performed in triplicates.

HpHtrA D168A = target: T2, HpHtrA D168A (Helicobacter pylori, UniProt G2J5T2, D168A); test: thermal shift assay; assay type: binding; design: (HpHtrA, G18-K475, UniProt G2J5T2); GST (N, cleaved yes); made in house; host or cells: E. coli BL21
T2 sequence (G2J5T2 18-475 D168A): T1 sequence (G2J5T2 18-475 D165A) with A148D, D151A
Description: as §1

HpHtrA S166A = target: T3, HpHtrA S166A (Helicobacter pylori, UniProt G2J5T2, S166A); test: thermal shift assay; assay type: binding; design: (HpHtrA, G18-K475, UniProt G2J5T2); GST (N, cleaved yes); made in house; host or cells: E. coli BL21
T3 sequence (G2J5T2 18-475 S166A): T1 sequence (G2J5T2 18-475 D165A) with A148D, S149A
Description: as §1

HpHtrA wt = target: T4, HpHtrA wt (Helicobacter pylori, UniProt G2J5T2); test: thermal shift assay; assay type: binding; design: (HpHtrA, G18-K475, UniProt G2J5T2); GST (N, cleaved yes); made in house; host or cells: E. coli BL21
T4 sequence (G2J5T2 18-475): T1 sequence (G2J5T2 18-475 D165A) with A148D
Description: as §1

HtrA homolog A (HhoA) = conditions: cited from earlier work
[1] = low/increasing concentrations of ion

SMILES	effect on casein degradation by BbHtrA (BbHtrA)	thermal destabilization (ΔTm) (HpHtrA D165A; compared with wt and S164A)	thermal destabilization (ΔTm) (HpHtrA D168A; compared with wt and S164A)	thermal destabilization (ΔTm) (HpHtrA S166A; compared with wt and S164A)	thermal destabilization (ΔTm) (HpHtrA wt; HpHtrA wt, higher concentrations of ion)	thermal stabilization (ΔTm) (HpHtrA wt; HpHtrA wt, low concentrations of ion)	effect on HhoA in a casein cleavage assay (HtrA homolog A (HhoA))	thermal stabilization (ΔTm) (HpHtrA D165A; [1])	thermal stabilization (ΔTm) (HpHtrA D168A; [1])	thermal stabilization (ΔTm) (HpHtrA S166A; [1])	concentration at which HpHtrA wt was stabilized (HpHtrA wt; 4 µM HpHtrA wt, SYPRO Orange, 25–95 °C)
[Cu+2] [Cu^++, CuCl2]	similarly inhibited	more strongly destabilized	more strongly destabilized	more strongly destabilized	destabilized	stabilized					
[Zn+2] [Zn^++, ZnCl2]	similarly inhibited						inactivates	did not stabilize	did not stabilize	did not stabilize	approximately 10 µM
